Key:
[1] = tested on: E. coli helicase I, helicase II (uvrD), and rep proteins; settings: George et al., cited from earlier work; for Ki: read-out: Ki for ATPase and helicase activities
recBCD enzyme [2] = test: Dye displacement fluorometric helicase assay (DNA unwinding followed by dye fluorescence); format: biochemical, E. coli; settings: for Apparent rate of unwinding at which the dye titration levels off: 0.5 nM total recBCD, 2 uM SSB, plateau at ~150 nM for H33258 and TO and 375 nM for DAPI; for Apparent rate of unwinding at which the dye titration levels off / Vmax, observed rate of unwinding at saturating enzyme: 20° C.; for Increase of Vmax in absence of SSB protein relative to its presence: SSB protein omitted vs present; for Vmax, observed rate of unwinding: SSB protein omitted; for Vmax, observed rate of unwinding / Vmax, observed rate of unwinding at saturating enzyme: 250 nM DAPI, 100 nM H33258, 300 nM TO; for Vmax, observed rate of unwinding at saturating enzyme / Apparent energy of activation (Ea) of unwinding: with SSB protein; for Vmax, observed rate of unwinding at saturating enzyme: SSB assay gives 250±25; for Apparent energy of activation (Ea) of unwinding: Arrhenius plots from 20°, 25°, 32°, 37° C., SSB assay 9.7
Protocol: (§1) Fluorometric helicase assay: The standard reaction buffer consisted of 25 mM Tris-acetate (pH 7.5), 1 mM Mg(OAc)2, and 1 mM DTT. When SSB protein was included, it was present at a 3-fold molar excess, assuming a site size of 15 nucleotides/monomer under stoichiometric conditions. This corresponds to a protein concentration which is 20% of the DNA (nucleotide) concentration. The DNA substrate was BamHI-digested pBR322 DNA, at a concentration of 10 uM nucleotide (2.1 nM ends).
(§2) The reaction (350 ul total volume) contained standard buffer, linear pBR322 DNA, and the indicated concentration of recBCD enzyme. […] The fluorescence signal due to these components was zeroed out. The fluorophore (either SSB protein or dye) was then added, and the reaction was allowed to equilibrate to the indicated temperature. Unwinding was initiated by the addition of ATP to 3 mM final concentration. […] For SSB protein fluorescence measurements, the value for 100% unwinding was calculated as described previously (28, 41). For dye fluorescence experiments, the value for complete unwinding was obtained by subtracting the fluorescence in the presence of an equimolar amount of ssDNA (i.e., heat-denatured pBR322) (FssDNA) from the fluorescence at the start of the reaction (FdsDNA). The difference in these values (FdsDNA -FssDNA) was taken to be the maximum fluorescence change possible if all of the DNA molecules were fully unwound (Fexp). The observed fluorescence change (Fobs) was divided by this differ ence to obtain the extent of unwinding. Initial rates were then calculated as described previously (28).
(§3) Fluorescence measurements were carried out on a Shimadzu RF5000U spectrofluorophotometer. When the intrinsic fluorescence of SSB protein was measured, the excitation and emission wavelengths were set at 290 and 340 nm, respectively. The excitation and emission wavelengths for the various dyes were determined experimentally in the presence of dsDNA. For AO, these values were 487 and 510 nm; for DAPI, 345 and 467 nm; for EB, 546 and 590 nm; for EHD, 552 and 596 nm; for H33258, 344 and 487 nm; and for TO, 504 and 528 nm. When SSB protein fluorescence was monitored, the band widths were 1.5 and 10 nm for the excitation and emission slits, respectively; for all of the dye fluorescence experiments, these values were 5 and 10 nm, respectively.
To determine whether the presence of dyes affected the observed rate of unwinding, the reaction (including SSB protein) was performed at several concentrations of DAPI, H33258, and TO. The reactions were performed at 20° C. in standard buffer with 10 uM nucleotide (2.1 nM ends) linear pBR322 DNA, 2 uM SSB protein, 0.5 nM total (0.17 nM functional) recBCD enzyme, and the indicated concentration of dye. Unwinding was initiated by adding ATP to a final concentration of 3 mM. […] For each dye (DAPI (.circle-solid.), H33258 (o), or TO (.tangle-solidup.), the initial rate of unwinding was determined as described in the Experimental Procedures and is plotted in panel B as a function of dye concentration. Due to the lag behavior illustrated in panel A, the data at concentrations ≤100 nM are considered unreliable, as indicated by shading this portion of the graph.
In FIG. 4A, raw data from an experiment in which recBCD enzyme concentration was varied at a given concentration of TO are shown; SSB protein was included to allow comparison to previous results. From results such as these, using either DAPI, H33258, or TO, the data in FIG. 4B were generated. Unwinding was performed as in FIG. 3, except that the concentration of recBCD enzyme was varied, and a constant concentration of fluorophore (250 nM for DAPI; 100 nM for H33258; and 300 nM for TO) was used. In panel A, a portion of the raw data obtained with TO are shown. The observed rates of unwinding derived from such experiments are shown in panel B. DAPI, .circle-solid.; H33258, o; TO, .tangle-solidup.. […]

recBCD enzyme [3] = molecular target: T1, recBCD enzyme (Escherichia coli, UniProt P04993+P07648+P08394); test: SSB protein fluorescence assay of DNA unwinding in presence of fluorescent dyes; format: biochemical, E. coli; settings: for Rate of DNA unwinding: 20° C., 2 uM SSB protein, 0.5 nM total recBCD enzyme, none = 40.7 ± 4.1
T1 construct: made in house
T1 sequence (P07648 whole entry): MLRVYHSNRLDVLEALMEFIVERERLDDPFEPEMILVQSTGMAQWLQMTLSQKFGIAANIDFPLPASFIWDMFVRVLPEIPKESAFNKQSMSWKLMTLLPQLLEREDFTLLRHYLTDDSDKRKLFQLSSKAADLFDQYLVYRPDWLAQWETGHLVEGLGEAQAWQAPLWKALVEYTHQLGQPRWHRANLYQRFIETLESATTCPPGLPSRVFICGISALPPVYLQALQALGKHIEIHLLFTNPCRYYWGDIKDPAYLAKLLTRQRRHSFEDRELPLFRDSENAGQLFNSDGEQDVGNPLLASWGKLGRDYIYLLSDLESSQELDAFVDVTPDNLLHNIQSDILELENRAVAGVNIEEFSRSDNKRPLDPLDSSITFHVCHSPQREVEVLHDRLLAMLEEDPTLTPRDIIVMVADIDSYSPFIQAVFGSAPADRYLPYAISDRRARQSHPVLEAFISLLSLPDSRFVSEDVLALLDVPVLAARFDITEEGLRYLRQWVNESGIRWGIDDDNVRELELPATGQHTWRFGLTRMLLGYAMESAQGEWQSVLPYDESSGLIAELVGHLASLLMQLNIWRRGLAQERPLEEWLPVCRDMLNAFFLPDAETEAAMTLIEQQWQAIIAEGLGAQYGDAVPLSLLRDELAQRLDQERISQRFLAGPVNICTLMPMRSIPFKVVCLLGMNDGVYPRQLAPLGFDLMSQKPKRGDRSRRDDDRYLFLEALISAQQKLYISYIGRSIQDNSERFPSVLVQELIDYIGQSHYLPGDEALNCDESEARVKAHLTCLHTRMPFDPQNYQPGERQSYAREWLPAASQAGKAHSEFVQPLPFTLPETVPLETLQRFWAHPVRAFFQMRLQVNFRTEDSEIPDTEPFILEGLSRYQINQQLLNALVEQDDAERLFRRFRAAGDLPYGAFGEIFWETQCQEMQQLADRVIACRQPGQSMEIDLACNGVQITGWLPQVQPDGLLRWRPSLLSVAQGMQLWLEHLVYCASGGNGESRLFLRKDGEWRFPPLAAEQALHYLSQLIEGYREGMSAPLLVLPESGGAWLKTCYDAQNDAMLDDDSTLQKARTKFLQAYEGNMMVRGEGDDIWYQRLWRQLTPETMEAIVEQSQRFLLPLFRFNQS
T1 sequence (P04993 whole entry): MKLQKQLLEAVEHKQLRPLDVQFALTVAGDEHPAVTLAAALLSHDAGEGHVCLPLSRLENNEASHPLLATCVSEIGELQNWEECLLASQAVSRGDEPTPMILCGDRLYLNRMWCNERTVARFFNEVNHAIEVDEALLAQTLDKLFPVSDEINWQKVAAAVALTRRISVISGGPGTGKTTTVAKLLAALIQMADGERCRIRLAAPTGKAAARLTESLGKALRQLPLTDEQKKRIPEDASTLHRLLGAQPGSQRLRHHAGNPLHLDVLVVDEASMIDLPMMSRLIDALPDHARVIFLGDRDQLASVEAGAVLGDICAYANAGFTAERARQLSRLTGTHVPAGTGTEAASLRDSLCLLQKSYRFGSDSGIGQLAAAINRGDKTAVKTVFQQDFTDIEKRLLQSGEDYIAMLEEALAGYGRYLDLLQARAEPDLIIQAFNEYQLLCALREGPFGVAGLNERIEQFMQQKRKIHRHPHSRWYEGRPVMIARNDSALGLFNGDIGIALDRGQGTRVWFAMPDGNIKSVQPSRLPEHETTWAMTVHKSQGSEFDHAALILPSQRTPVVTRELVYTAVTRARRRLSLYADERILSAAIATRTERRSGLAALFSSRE
T1 sequence (P08394 whole entry): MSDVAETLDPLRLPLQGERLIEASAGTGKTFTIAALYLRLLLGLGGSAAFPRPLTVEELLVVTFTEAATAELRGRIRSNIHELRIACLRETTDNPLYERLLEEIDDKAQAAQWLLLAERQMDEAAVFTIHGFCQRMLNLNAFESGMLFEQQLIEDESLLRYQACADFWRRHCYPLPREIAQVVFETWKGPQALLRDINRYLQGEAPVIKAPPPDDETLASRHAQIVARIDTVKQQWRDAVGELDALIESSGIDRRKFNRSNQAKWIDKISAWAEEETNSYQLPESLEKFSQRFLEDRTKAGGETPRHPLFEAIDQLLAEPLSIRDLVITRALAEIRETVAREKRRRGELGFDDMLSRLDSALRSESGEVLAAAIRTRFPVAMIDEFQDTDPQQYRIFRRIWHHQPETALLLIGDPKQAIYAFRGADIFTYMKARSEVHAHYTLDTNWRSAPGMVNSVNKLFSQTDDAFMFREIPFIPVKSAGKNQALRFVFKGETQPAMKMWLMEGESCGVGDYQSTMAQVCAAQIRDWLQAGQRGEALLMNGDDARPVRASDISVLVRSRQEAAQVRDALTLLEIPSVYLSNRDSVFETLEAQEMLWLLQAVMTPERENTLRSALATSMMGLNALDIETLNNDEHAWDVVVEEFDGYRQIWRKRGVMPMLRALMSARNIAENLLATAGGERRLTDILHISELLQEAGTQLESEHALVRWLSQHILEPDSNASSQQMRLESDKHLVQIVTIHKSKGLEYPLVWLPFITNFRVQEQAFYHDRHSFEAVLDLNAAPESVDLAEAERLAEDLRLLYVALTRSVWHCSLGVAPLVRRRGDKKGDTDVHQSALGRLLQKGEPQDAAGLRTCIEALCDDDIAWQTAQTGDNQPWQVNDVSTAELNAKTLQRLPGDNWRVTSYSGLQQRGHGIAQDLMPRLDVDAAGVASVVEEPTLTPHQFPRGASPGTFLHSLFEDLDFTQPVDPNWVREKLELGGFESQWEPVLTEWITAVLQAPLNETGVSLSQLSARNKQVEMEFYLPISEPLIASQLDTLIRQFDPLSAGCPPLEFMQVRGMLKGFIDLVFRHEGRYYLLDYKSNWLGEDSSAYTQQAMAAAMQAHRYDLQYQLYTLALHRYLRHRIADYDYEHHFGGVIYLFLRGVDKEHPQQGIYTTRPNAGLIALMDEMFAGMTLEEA
Protocol: as §1, §2, §3
The unwinding reaction was performed at 20° C. in buffer containing 25 mM Tris-acetate (pH 7.5), 1 mM Mg(OAc)2, 3 mM ATP, 1 mM DTT, 10 uM nucleotide BamHI-digested pBR322 DNA, 2 uM SSB protein, 0.5 nM total (0.17 nM functional) recBCD enzyme, and the indicated concentrations of dye. SSB protein fluorescence was monitored.

helicase = settings: other studies (refs 46-48); cited from earlier work

SMILES: CN(C)c1ccc2cc3ccc(N(C)C)cc3nc2c1 [AO, acridine orange]
- Ki [1]: 1 to 10 µM

SMILES: CN1C(=Cc2cc[n+](C)c3ccccc23)Sc2ccccc21 [TO, thiazole orange]
- Apparent rate of unwinding at which the dye titration levels off (recBCD enzyme [2]): 20-25 nM bp/s
- Increase of Vmax in absence of SSB protein relative to its presence (recBCD enzyme [2]): 25-50%
- Vmax, observed rate of unwinding (recBCD enzyme [2]): 330±25 nM bp/s
- Vmax, observed rate of unwinding at saturating enzyme (recBCD enzyme [2]): 211±15 nM bp/s
- Apparent energy of activation (Ea) of unwinding (recBCD enzyme [2]): 9.7 kcal/mol
- Rate of DNA unwinding (recBCD enzyme [3]; 100 nM dye): 35.6 ± 1.3 nm bp/s
- Rate of DNA unwinding (recBCD enzyme [3]; 250 nM dye): 31.9 ± 0.7 nm bp/s
- inhibition at 0.25 µM (recBCD enzyme [3]; read-out: Decrease of observed rate of unwinding): < 20%

SMILES: O=C1c2c(O)ccc(O)c2C(=O)c2c(NCCNCCO)ccc(NCCNCCO)c21 [mitoxantrone]
- Inhibition of helicases ([1]; dependent upon ligand and enzyme): potent but differential inhibition

SMILES: COc1c(O)c2c(c3cc(C(=O)N4CCc5c4c(O)c(OC)c4[nH]c(C(=O)N6CC7CC78C6=CC(=O)c6[nH]cc(C)c68)cc54)[nH]c13)CCN2C(N)=O (stereo not shown) [CC-1065]
- Inhibition of helicase activity (helicase): inhibition of helicase activity

SMILES: CN1CCN(c2ccc3[nH]c(-c4ccc5[nH]c(-c6ccc(O)cc6)nc5c4)nc3c2)CC1 [H33258, Hoechst 33258]
- Apparent rate of unwinding at which the dye titration levels off (recBCD enzyme [2]): 20-25 nM bp/s
- Rate of unwinding at optimal dye concentration compared with SSB protein fluorescence assay (recBCD enzyme [2]; 400 nm DAPI, 300 nm H33258): within experimental error, equal to those obtained using the SSB protein fluorescence assay
- Increase of Vmax in absence of SSB protein relative to its presence (recBCD enzyme [2]): 25-50%
- Vmax, observed rate of unwinding (recBCD enzyme [2]): 272±30 nM bp/s
- Vmax, observed rate of unwinding at saturating enzyme (recBCD enzyme [2]): 221±25 nM bp/s
- Apparent energy of activation (Ea) of unwinding (recBCD enzyme [2]): 9.9 kcal/mol
- Ki [1]: 1 to 10 µM
- Rate of DNA unwinding (recBCD enzyme [3]; 100 nM dye): 36.1 ± 4.5 nm bp/s
- Rate of DNA unwinding (recBCD enzyme [3]; 250 nM dye): 35.5 ± 1.9 nm bp/s
- Effect on observed rate of unwinding (recBCD enzyme [3]; dye at 100 or 250 nM, low enzyme concentration): does not affect the observed rate of unwinding

SMILES: N=C(N)c1ccc(-c2cc3ccc(C(=N)N)cc3[nH]2)cc1
- Ki [1]: 1 to 10 µM

— patent US5747247A, “Spectroscopic helicase assay” (The Regents of The University of California, priority 1994, dated 1998)
